Laboratory results from ChEMBL document CHEMBL3886397, “Agent for treatment of eye diseases” (2015).

Target: Transitional endoplasmic reticulum ATPase (Mus musculus, UniProt Q01853)
Experiment: Inhibition Assay: Mouse VCP cDNA was added with a DNA sequence corresponding to histidine tag at the amino-terminal, subcloned into a baculovirus vector pVL1392 (BD Bioscience), and expressed in Sf-9 insect cells. The protein was purified with a nickel column (GE Healthcare). The concentration of the protein was adjusted to 0.25-0.5 ug/ml and the protein was stored in a solution containing 50 mM TrisCl pH 8.0, 5 mM EDTA, 10% glycerol, and 15 mM DTT. The ATPase activity was determined as follows. 500 ng of the purified VCP was mixed with 100 uM [gamma-32P]ATP (18.5 GBq/mmol) and the test substance in 20 uL of ATPase buffer (20 mM HEPES (pH7.4), 50 mM KCl, 5 mM MgCl2, 15 mM DTT), and incubated at 37° C. for 10 minutes.The enzyme reaction was stopped with addition of 200 uL of an ice-cold solution containing 7% TCA and 1 mM K2HPO4. 50ul of a solution containing 3.75% ammonium molybdate and 0.02M tungstate silicic/3 NH2SO4 was added, followed by 300 uL of […].

Sequence of Transitional endoplasmic reticulum ATPase (Q01853 whole entry): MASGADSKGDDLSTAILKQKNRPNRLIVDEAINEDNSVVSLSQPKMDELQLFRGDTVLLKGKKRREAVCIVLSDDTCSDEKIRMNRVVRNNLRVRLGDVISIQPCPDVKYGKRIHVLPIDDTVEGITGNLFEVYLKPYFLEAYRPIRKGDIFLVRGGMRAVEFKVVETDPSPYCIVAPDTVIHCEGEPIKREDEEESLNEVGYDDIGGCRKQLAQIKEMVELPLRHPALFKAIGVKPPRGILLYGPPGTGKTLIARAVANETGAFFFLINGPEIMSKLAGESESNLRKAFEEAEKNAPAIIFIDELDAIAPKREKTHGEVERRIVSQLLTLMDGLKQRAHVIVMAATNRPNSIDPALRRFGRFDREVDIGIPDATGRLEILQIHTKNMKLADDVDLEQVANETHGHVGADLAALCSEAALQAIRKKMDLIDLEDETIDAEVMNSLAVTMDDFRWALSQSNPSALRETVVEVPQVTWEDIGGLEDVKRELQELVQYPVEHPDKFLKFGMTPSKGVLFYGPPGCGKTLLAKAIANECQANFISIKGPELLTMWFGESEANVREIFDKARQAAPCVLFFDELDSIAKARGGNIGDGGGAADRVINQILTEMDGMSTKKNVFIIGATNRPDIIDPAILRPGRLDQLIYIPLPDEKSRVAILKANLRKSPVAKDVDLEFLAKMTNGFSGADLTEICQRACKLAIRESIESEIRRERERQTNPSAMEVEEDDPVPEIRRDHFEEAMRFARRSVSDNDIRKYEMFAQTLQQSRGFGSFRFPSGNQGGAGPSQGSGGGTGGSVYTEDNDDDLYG

Row | SMILES | IC50
1 | CC(=O)c1ccc(-c2ccc(/N=N/c3cc(S(=O)(=O)O)c4ccccc4c3N)cn2)cc1 | 0.136 µM
2 | Nc1c(/N=N/c2ccc(-c3cc(C(F)(F)F)cc(C(F)(F)F)c3)nc2)cc(S(=O)(=O)O)c2ccccc12 | 2.75 µM
